Test results: patent publication US11324795B2, “Composition comprising Hordeum vulgare extract for preventing or treating short stature” (UNIVERSITY-INDUSTRY COOPERATION GROUP OF KYUNG HEE …, priority 2013, dated 2022)

Tested on: Sprague-Dawley female rats
Test: Evaluation of longitudinal bone growth effect, tetracycline staining method
Format: in vivo, rat
Description: As experimental animals, four-week-old Sprague-Dawley female rats (Samtako, Korea) weighing about 100 g were purchased and cared for so as to be acclimatized to the experimental environment while supplying sufficient feed and water. After about 1 week for the acclimatization period, animal testing was performed.
Two days after administration, 20 mg/kg of tetracycline hydrochloride (Sigma T7660) was injected intraperitoneally to all test groups. Two days thereafter, the rats were sacrificed via cervical dislocation, after which the left and right tibiae were removed, fixed in a fixing solution at 4° C. for 3 days, allowed to stand in 50 mM EDTA for 1 day, demineralized, and immersed in 30% sucrose overnight to protect freezing. The bone tissue thus dehydrated was frozen, and cut into 40 μm sections using a sliding microtome (HM440E, Zeiss, Germany), thus collecting sagittal sections of the proximal part of the tibia. To measure the bone growth, each sagittal section of the proximal part of the tibia, 40 μm thick, was placed on a slide glass, dried, and then observed under UV light at a wavelength of 400 nm using a fluorescence microscope (FIG. 1). Using image analysis software ImageJ (NIH, USA), the length between the fluorescence bands formed by the deposition of tetracycline in the growth plate and the bone tissue was measured, and Student's t-test and ANOVA test for comparison with a control group were performed in order to determine the growth effect.
The Hordeum vulgare extract prepared in Example 1 was administered after having been dissolved in a concentration of 30 mg/kg in type II distilled water in a volume of 1.0 ml per 100 g of rat weight, and as a control group, the same volume of type II distilled water was administered. The Hordeum vulgare extract was orally administered two times a day for a total of four days, starting from 2 days before the administration of tetracycline until the test termination day. […]

Substance: Positive control group: recombinant human growth hormone (rhGH; LG Lifescience, Eutropin®)
- Longitudinal bone growth rate (%) (Table 1, extract 30 mg/kg (p.o.), positive control 20 μg/kg (s.c.)): 6.6%
- longitudinal bone growth rate (proximal tibia, tetracycline band length, 4 days dosing, extract 30 mg/kg p.o. two times a day, rhGH 20 μg/kg s.c. once a day): 360.1±35.8 μm/day
- longitudinal bone growth rate, % higher than normal control group (vs 337.8±30.0 μm/day in normal control group, extract 30 mg/kg p.o. (p<0.001), rhGH 20 μg/kg s.c. (not significant)): 6.6%
